Assay results reported in patent publication US20210038569A1, “COMPOSITIONS AND METHODS FOR TREATING PIGMENTATION DISORDERS” (Timber Pharmaceuticals, Inc., priority 2018, published 2021).
“Also recorded” adds a separate entry of the source. Like-named read-outs stand apart in the source and are kept apart here.

What was measured:
[1] = target: T1, endothelin-A (ET-A) receptor (Homo sapiens, UniProt P25101); details: cited from earlier work
T1 sequence (P25101 21-427): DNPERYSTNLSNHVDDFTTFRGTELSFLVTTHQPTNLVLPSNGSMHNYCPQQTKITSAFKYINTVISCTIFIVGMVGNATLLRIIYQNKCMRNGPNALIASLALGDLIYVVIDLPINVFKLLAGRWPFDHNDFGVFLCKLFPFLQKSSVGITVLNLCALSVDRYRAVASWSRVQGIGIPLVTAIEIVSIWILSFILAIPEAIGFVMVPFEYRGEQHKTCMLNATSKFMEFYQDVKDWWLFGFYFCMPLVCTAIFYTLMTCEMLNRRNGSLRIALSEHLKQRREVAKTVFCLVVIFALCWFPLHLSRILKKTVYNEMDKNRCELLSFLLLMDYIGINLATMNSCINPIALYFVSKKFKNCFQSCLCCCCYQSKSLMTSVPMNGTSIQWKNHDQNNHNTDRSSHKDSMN

[2] = tested on: normal human dermal fibroblasts (NHDFs) stimulated with TGF-β1; assay: Apoptosis (Caspase-Glo 3/7) in TGF-β1 induced normal human dermal fibroblasts; type: cell-based; details: for Apoptosis: 48 hours, 50 ng/mL TGF-β1; for Apoptosis, result in words: after treatment, compared with vehicle control and between compounds
Protocol: For these assays cells were grown for 48 hours in the presence of vehicle control, sitaxentan, and bosentan. The appropriate assay reagents and measuring techniques were used as indicated herein. Normal human dermal fibroblast cells (LLCT FC0024 lot 03869_ fibroblast) were seeded to confluence in 96 well plates in 10% fetal bovine serum (FBS) Dulbecco's modified eagle medium (DMEM). The cells were washed to remove the FBS, and serum free media was added overnight (O/N). The cells were then stimulated with 50 ng/mL TGF-β1 and treated. For the apoptosis assay: 100 μl of Caspase-Glo® 3/7 Reagent (Promega, Cat #G6320), for the apoptosis assay, was added and briefly mixed. The plate was incubated for 30 minutes at room temperature prior to measurement of luminescence Data were analyzed using GraphPad Prism 7. Six to nine replicates were run for each sample.

[3] = tested on: normal human dermal fibroblasts (NHDFs) stimulated with TGF-β1; assay: Cell cytotoxicity in TGF-β1 induced normal human dermal fibroblasts; type: cell-based; details: for Cell Cytotoxicity: 48 hours, 50 ng/mL TGF-β1; for Cytotoxicity, result in words: compared with vehicle control and between compounds
Protocol: The effect of sitaxentan on cell viability, cell cytotoxicity, and apoptosis was measured in an assay using normal human dermal fibroblasts induced with TGF-β1 into a profibrotic phenotype. For these assays cells were grown for 48 hours in the presence of vehicle control, sitaxentan, and bosentan. The appropriate assay reagents and measuring techniques were used as indicated herein.
normal human dermal fibroblast cells (LLCT FC0024 lot 03869_ fibroblast) were seeded to confluence in 96 well plates in 10% fetal bovine serum (FBS) Dulbecco's modified eagle medium (DMEM).
The cells were washed to remove the FBS, and serum free media was added overnight (O/N).
The cells were then stimulated with 50 ng/mL TGF-β1 and treated.
For the cell cytotoxicity assay:
20 μl of the Cytotoxicity Reagent (Promega, Cat #G6320) containing both GF-AFC Substrate and bis-AAF-R110 Substrate, for measuring dead cells (cytotoxicity), was added and briefly mixed.
The plates for the different assays were then incubated for 30 minutes at 37° C.
Fluorescence was measured at: 400Ex/505Em (Viability) and 485Ex/520Em (Cytotoxicity)
Data were analyzed using GraphPad Prism 7.
Six to nine replicates were run for each sample.

[4] = tested on: primary normal human adult melanocytes; assay: Melanin content in melanocytes; type: cell-based; details: for Melanin Content (absorbance at 400 nm): 24 hours
Protocol: (§1) The effect of sitaxentan on human melanocytes was measured. For these assays cells were grown for 24 hours in the presence of vehicle control, sitaxentan, and bosentan. The appropriate assay reagents and measuring techniques were used as indicated herein. Melanocytes, from either Caucasian or African American donors, were grown to confluence in 6-well tissue culture plates using LLCT DermaLife Ma complete medium and treated with compounds for 24 hours. Treated cells were removed from the plate with 0.25% trypsin for 10 minutes and then centrifuged at 0.4 g for 5 minutes. The resulting cell pellet was resuspended in 50 μL of 1M NaOH/10% DMSO solution. The resultant suspension was vortexed for 30 seconds. The suspension was then baked in a drying oven at 80° C. for 1 hour. The suspension was vortexed again for 30 seconds and then transferred to a black half-area 96-well plate and read in a UV/VIS spectrophotometer at 400 nm. Data were analyzed using GraphPad Prism 7.

[5] = tested on: primary normal human adult melanocytes; assay: Melanin content in melanocytes; type: cell-based; details: for Melanin Content (absorbance at 400 nm): 24 hours; remark: listed apart in the source
Protocol: as §1

[6] = tested on: normal human dermal fibroblasts (NHDFs) stimulated with TGF-β1; assay: Cell viability in TGF-β1 induced normal human dermal fibroblasts; type: cell-based; details: for Cell Viability: 48 hours, 50 ng/mL TGF-β1
Protocol: For these assays cells were grown for 48 hours in the presence of vehicle control, sitaxentan, and bosentan. The appropriate assay reagents and measuring techniques were used as indicated herein. Normal human dermal fibroblast cells (LLCT FC0024 lot 03869_ fibroblast) were seeded to confluence in 96 well plates in 10% fetal bovine serum (FBS) Dulbecco's modified eagle medium (DMEM). The cells were washed to remove the FBS, and serum free media was added overnight (O/N). The cells were then stimulated with 50 ng/mL TGF-β1 and treated. For the cell viability assay: 20 μl of the Viability Reagent (Promega, Cat #G6320) containing both GF-AFC Substrate and bis-AAF-R110 Substrate, for measuring live cell viability, was added and briefly mixed. The plates for the different assays were then incubated for 30 minutes at 37° C. […] Data were analyzed using GraphPad Prism 7. Six to nine replicates were run for each sample.

[7] = in vivo; cited from earlier work
[8] = cited from earlier work

Row | Compound | Apoptosis ([2]; 1 μM) [RLUs] | Apoptosis ([2]; 3 μM) [RLUs] | Apoptosis ([2]; 10 μM) [RLUs] | Apoptosis ([2]; 30 μM) [RLUs] | Apoptosis ([2]; 100 μM) [RLUs] | Apoptosis, result in words [2] | Cell Cytotoxicity ([3]; 1 μM) [RFUs] | Cell Cytotoxicity ([3]; 3 μM) [RFUs] | Cell Cytotoxicity ([3]; 10 μM) [RFUs] | Cell Cytotoxicity ([3]; 30 μM) [RFUs] | Cell Cytotoxicity ([3]; 100 μM) [RFUs] | Cytotoxicity, result in words [3] | Effect on melanin content, result in words [4] | Melanin Content (absorbance at 400 nm) ([4]; 30 μM) | Melanin Content (absorbance at 400 nm) ([4]; 100 μM) | Effect on melanin content, result in words [5] | Melanin Content (absorbance at 400 nm) ([5]; 30 μM) | Melanin Content (absorbance at 400 nm) ([5]; 100 μM) | Cell Viability ([6]; 1 μM) [RFUs] | Cell Viability ([6]; 3 μM) [RFUs] | also measured
1 | Cc1cc2c(cc1CC(=O)c1sccc1S(=O)(=O)Nc1onc(C)c1Cl)OCO2 [sitaxentan, N-(4-Chloro-3-methyl-5-isoxazolyl)-2-[(2-methyl-4,5-methylenedioxyphenyl)-acetyl]thiophene-3-sulfonamide] | 37593.4 | 39162.8 | 39512.0 | 46053.5 | 51050.2 | elevated; also recorded: significantly more potent effect than bosentan | 4643.9 | 5058.3 | 4741.7 | 3837.5 | 2911.3 | neither bosentan nor sitaxentan was significantly more cytotoxic than the vehicle control | superior to bosentan in reducing the melanin content; also recorded: significantly more effective than a vehicle control at reducing melanin content; also recorded: significantly decreased melanin content | 0.579 | 0.544 | superior to bosentan in reducing the melanin content; also recorded: significantly more effective than a vehicle control at reducing melanin content; also recorded: significantly decreased melanin content | 0.471 | 0.46 | 5678.3 | 5639.0 | Selectivity for ET-A compared to ET-B (factor) [1]: 6000; Cytotoxicity, result in words ([3]; listed as sitaxsentan): significantly less cytotoxic to human skin cells than bosentan; Cell Viability ([6]; 10 μM): 5600.5 RFUs; Cell Viability ([6]; 30 μM): 5250.8 RFUs; Cell Viability ([6]; 100 μM): 5171.0 RFUs; Toxicity (cell viability), result in words ([6]; concentrations up to 100 μM): no significant toxicity was observed; Metabolism [7]: hepatic (CYP2C9- and CYP3A4-mediated); Protein binding [8]: > 99%
2 | COc1ccccc1Oc1c(NS(=O)(=O)c2ccc(C(C)(C)C)cc2)nc(-c2ncccn2)nc1OCCO [bosentan] | 39366.8 | 38639.8 | 38586.7 | 42825.2 | 43330.7 | elevated | 4256.9 | 3954.2 | 3764.0 | 4607.5 | 3929.0 | neither bosentan nor sitaxentan was significantly more cytotoxic than the vehicle control; also recorded: significantly more cytotoxic than sitaxentan | no effect on melanin content | 0.633 | 0.703 | no effect on melanin content | 0.511 | 0.497 | 5406.8 | 5548.5 | Cell Viability ([6]; 10 μM): 5521.2 RFUs; Cell Viability ([6]; 30 μM): 5537.0 RFUs; Cell Viability ([6]; 100 μM): 5584.3 RFUs
